According to patent US10858366B2 (priority 2016, dated 2020):

Experiments:
[1] = molecular target: truncated Influenza A/victoria/75 PA(1-209) (Influenza A virus (strain A/Victoria/3/1975 H3N2), UniProt P31343); experiment: Endonuclease Inhibition Assay (PA FP Assay); type: binding; conditions: fluorescence polarization, fluorescein-labeled probe
Description: Endonuclease Inhibition Assay (PA FP Assay)
Compounds were dissolved and serially diluted in 100% DMSO then 0.5 μl was transferred to 384-well plates. 50 nM truncated Influenza A/victoria/75 PA(1-209) was prepared in assay buffer (20 mM Tris, pH=7.5, 10 mM MgCl2, 0.01% Tween 20, 100 mM NaCl and 1 mM DTT) and 20 ul was added to each well of assay plate with compounds, centrifuged for 1 min at 1000 rpm and incubated for 30 min at room temperature. 20 μl of 20 nM fluorescein-labeled probe [5-(4-(3-carboxy-3-oxopropanoyl)-4-(4-chlorobenzyl)piperidine-1-carbonyl)-2-(6-hydroxy-3-oxo-3H-xanthen-9-yl)benzoic acid] in assay buffer was then added, centrifuged for 1 min at 1000 rpm and incubated for 60 min at room temperature.
Fluorescence polarization was measured on Perkin Elmer Envision plate reader with excitation at 480 nm and emission at 535 nm and reported in millipolarization units (mP). IC50 values were determined relative to wells containing 125 uM of a compound known to bind to the active site of PA and uninhibited wells containing 1.25% DMSO.

[2] = molecular target: RNP_CAL (PB2, PB1, PA, NP, influenza A Luciferase reporter in 293T cells) (Influenza A virus (strain swl A/California/04/2009 H1N1), UniProt C3W5S0); experiment: cell-based

**Q.** How did the IC50 [1] turn out when `O=c1cnn2c(c1O)-c1nccn1CC2C(c1ccccc1)c1ccccc1` (centres unmarked) [Example 1, 6-Benzhydryl-11-hydroxy-5H-imidazo[2′,1′:3,4]pyrazino[1,2-b]pyridazin-10(6H)-one] was run?
**A.** 50 nM

**Q.** And the EC50 [2]?
**A.** 110 nM

**Q.** Which IC50 [1] does the source give for `O=c1cnn2c(c1O)-c1nccn1CC2C(c1cccc(F)c1)c1cccc(F)c1` (centres unmarked) [Example 2, 6-(bis(3-fluorophenyl)methyl)-11-hydroxy-5,6-dihydro-10H-imidazo[2′,1′:3,4]pyrazino[1,2-b]pyridazin-10-one] here?
**A.** 70 nM

**Q.** What about the EC50 [2] of the same molecule?
**A.** 110 nM

**Q.** Which results are given for `O=c1cnn2c(c1O)-c1ncnn1CC2C(c1ccccc1)c1ccccc1` (centres unmarked) [Example 3, 6-benzhydryl-11-hydroxy-5,6-dihydro-10H-[1,2,4]triazolo[5′,1′:3,4]pyrazino[1,2-b]pyridazin-10-one]?
**A.** IC50 [1]: 400 nM; EC50 [2]: 1100 nM

**Q.** `O=c1ccn2c(c1O)-c1nccn1C[C@@H]2C(c1ccccc1)c1ccccc1` [Example 4, (S)-6-Benzhydryl-11-hydroxy-5H-imidazo[1,2-a]pyrido[2,1-c]pyrazin-10(6H)-one] was tested. Which IC50 [1] did it give?
**A.** 10 nM

**Q.** And the EC50 [2]?
**A.** 160 nM

**Q.** For `O=c1ccn2c(c1O)-c1ncc(Cl)n1C[C@@H]2C(c1ccccc1)c1ccccc1` [Example 5, (S)-6-Benzhydryl-3-chloro-11-hydroxy-5,6-dihydro-10H-imidazo[1,2-a]pyrido[2,1-c]pyrazin-10-one], which IC50 [1] is on record?
**A.** 20 nM

**Q.** And the EC50 [2]?
**A.** 100 nM

**Q.** With `O=c1ccn2c(c1O)-c1nccn1CN2C(c1ccccc1)c1ccccc1` [Example 6, 6-benzhydryl-11-hydroxy-5H-imidazo[1,2-d]pyrido[2,1-f][1,2,4]triazin-10(6H)-one] as the molecule, how does the IC50 [1] read?
**A.** 40 nM

**Q.** What about the EC50 [2] of the same molecule?
**A.** 190 nM

**Q.** How did the IC50 [1] turn out when `O=c1ccn2c(c1O)-c1ncc(Br)n1C[C@@H]2C(c1ccccc1)c1ccccc1` [Example 7, (S)-6-benzhydryl-3-bromo-11-hydroxy-5H-imidazo[1,2-a]pyrido[2,1-c]pyrazin-10(6H)-one] was run?
**A.** 9 nM

**Q.** And the EC50 [2]?
**A.** 170 nM

**Q.** Which results are given for `O=c1ccn2c(c1O)-c1ncc(C3CC3)n1C[C@@H]2C(c1ccccc1)c1ccccc1` [Example 8, (S)-6-benzhydryl-3-cyclopropyl-11-hydroxy-5H-imidazo[1,2-a]pyrido[2,1-c]pyrazin-10(6H)-one]?
**A.** IC50 [1]: 40 nM; EC50 [2]: 150 nM

**Q.** What does the source list for `Cc1nc2n(c1C)C[C@H](C(c1ccccc1)c1ccccc1)n1ccc(=O)c(O)c1-2` [Example 14, (S)-6-benzhydryl-11-hydroxy-2,3-dimethyl-5H-imidazo[1,2-a]pyrido[2,1-c]pyrazin-10(6H)-one]?
**A.** IC50 [1]: 100 nM; EC50 [2]: 4200 nM

**Q.** How did the IC50 [1] turn out when `O=c1cnn2c(c1O)-c1nccn1C[C@@H]2[C@H](c1ccccc1)c1ccc(F)cc1` [Example 17, (S)-6-((R)-(4-fluorophenyl)(phenyl)methyl)-11-hydroxy-5,6-dihydro-10H-imidazo[2′,1′:3,4]pyrazino[1,2-b]pyridazin-10-one] was run?
**A.** 20 nM

**Q.** What about the EC50 [2] of the same molecule?
**A.** 10 nM

**Q.** What does the source list for `O=c1cnn2c(c1O)-c1nccn1C[C@@H]2[C@@H](c1ccccc1)c1ccc(F)cc1` [Example 18, (S)-6-((S)-(4-fluorophenyl)(phenyl)methyl)-11-hydroxy-5,6-dihydro-10H-imidazo[2′,1′:3,4]pyrazino[1,2-b]pyridazin-10-one]?
**A.** IC50 [1]: 20 nM; EC50 [2]: 130 nM

**Q.** For `O=c1cnn2c(c1O)-c1nccn1C[C@@H]2[C@H](c1ccc(F)cc1)c1cncc(F)c1` [Example 19, (S)-6-((R)-(4-fluorophenyl)(5-fluoropyridin-3-yl)methyl)-11-hydroxy-5,6-dihydro-10H-imidazo[2′,1′:3,4]pyrazino[1,2-b]pyridazin-10-one], which IC50 [1] is on record?
**A.** 40 nM

**Q.** What about the EC50 [2] of the same molecule?
**A.** 260 nM

**Q.** How did the IC50 [1] turn out when `O=c1cnn2c(c1O)-c1nccn1C[C@@H]2[C@H](c1ccc(F)cc1)c1ccc(C(F)(F)F)nc1` [Example 20, (S)-6-((R)-(4-fluorophenyl)(6-(trifluoromethyl)pyridin-3-yl)methyl)-11-hydroxy-5,6-dihydro-10H-imidazo[2′,1′:3,4]pyrazino[1,2-b]pyridazin-10-one] was run?
**A.** 300 nM

**Q.** What about the EC50 [2] of the same molecule?
**A.** 720 nM

**Q.** For `O=c1cnn2c(c1O)-c1nccn1C[C@@H]2C(c1cccc(F)c1)c1cccc(F)c1` [Example 23, (S)-6-(bis(3-fluorophenyl)methyl)-11-hydroxy-5,6-dihydro-10H-imidazo[2′,1′:3,4]pyrazino[1,2-b]pyridazin-10-one], which IC50 [1] is on record?
**A.** 50 nM

**Q.** And the EC50 [2]?
**A.** 39 nM

**Q.** `O=c1cnn2c(c1O)-c1nccn1C[C@@H]2[C@@H](c1ccc(F)cc1)c1cccc(F)c1` [Example 24, (S)-6-((S)-(3-fluorophenyl)(4-fluorophenyl)methyl)-11-hydroxy-5,6-dihydro-10H-imidazo[2′,1′:3,4]pyrazino[1,2-b]pyridazin-10-one] was tested. Which IC50 [1] did it give?
**A.** 9 nM

**Q.** And the EC50 [2]?
**A.** 36 nM

**Q.** `O=c1cnn2c(c1O)-c1nccn1C[C@@H]2[C@@H](c1ccc(F)cc1)c1cccc(Br)c1` [Example 30, (S)-6-((S)-(3-bromophenyl)(4-fluorophenyl)methyl)-11-hydroxy-5,6-dihydro-10H-imidazo[2′,1′:3,4]pyrazino[1,2-b]pyridazin-10-one] was tested. Which IC50 [1] did it give?
**A.** 10 nM

**Q.** What does the source list for `O=c1cnn2c(c1O)-c1nccn1C[C@@H]2[C@@H](c1ccc(F)cc1)c1ccc(Cl)cc1` [Example 33, (S)-6-((S)-(4-chlorophenyl)(4-fluorophenyl)methyl)-11-hydroxy-5,6-dihydro-10H-imidazo[2′,1′:3,4]pyrazino[1,2-b]pyridazin-10-one]?
**A.** IC50 [1]: 20 nM; EC50 [2]: 110 nM

**Q.** For `Cc1cccc([C@H](c2ccc(F)cc2)[C@H]2Cn3ccnc3-c3c(O)c(=O)cnn32)c1` [Example 38, (S)-6-((S)-(4-fluorophenyl)(m-tolyl)methyl)-11-hydroxy-5,6-dihydro-10H-imidazo[2′,1′:3,4]pyrazino[1,2-b]pyridazin-10-one], which IC50 [1] is on record?
**A.** 40 nM

**Q.** And the EC50 [2]?
**A.** 49 nM

**Q.** Which IC50 [1] does the source give for `O=c1ccn2c(c1O)-c1ncc(CO)n1C[C@@H]2C(c1ccccc1)c1ccccc1` [Example 54, (S)-6-benzhydryl-11-hydroxy-3-(hydroxymethyl)-5,6-dihydro-10H-imidazo [1,2-a]pyrido[2,1-c]pyrazin-10-one] here?
**A.** 100 nM

**Q.** `O=c1ccn2c(c1O)-c1nccn1C(C1CC1)N2C(c1ccccc1)c1ccccc1` (centres unmarked) [Example 73, 6-benzhydryl-5-cyclopropyl-11-hydroxy-5,6-dihydro-10H-imidazo[1,2-d]pyrido[2,1-f][1,2,4]triazin-10-one] was tested. Which EC50 [2] did it give?
**A.** 170 nM

**Q.** `O=c1ccn2c(c1O)-c1nccn1CN2C1c2ccccc2CSc2ccccc21` (centres unmarked) [Example 74, 6-(6,11-dihydrodibenzo[b,e]thiepin-11-yl)-11-hydroxy-5,6-dihydro-10H-imidazo[1,2-d]pyrido[2,1-f][1,2,4]triazin-10-one] was tested. Which EC50 [2] did it give?
**A.** 84 nM

**Q.** `O=c1ccn2c(c1O)-c1nccn1C(C1CC1)N2C1c2ccccc2CSc2ccccc21` (centres unmarked) [Example 76, 5-cyclopropyl-6-(6,11-dihydrodibenzo[b,e]thiepin-11-yl)-11-hydroxy-5,6-dihydro-10H-imidazo[1,2-d]pyrido[2,1-f][1,2,4]triazin-10-one] was tested. Which EC50 [2] did it give?
**A.** 160 nM

**Q.** For `O=c1ccn2c(c1O)-c1nccn1C1(COC1)N2C1c2ccccc2CSc2ccccc21` (centres unmarked) [Example 80, 6-(6,11-dihydrodibenzo[b,e]thiepin-11-yl)-11-hydroxy-6H,10H-spiro[imidazo[1,2-d]pyrido[2,1-f][1,2,4]triazine-5,3′-oxetan]-10-one], which EC50 [2] is on record?
**A.** 10 nM

**Q.** With `O=c1ccn2c(c1O)-c1ncsc1CN2C(c1ccccc1)c1ccccc1` [Example 81, 5-benzhydryl-10-hydroxy-4,5-dihydro-9H-pyrido[1,2-b]thiazolo[4,5-d]pyridazin-9-one] as the molecule, how does the EC50 [2] read?
**A.** 7000 nM

**Q.** How did the EC50 [2] turn out when `O=c1ccn2c(c1O)-c1ncoc1CN2C(c1ccccc1)c1ccccc1` [Example 83, 5-benzhydryl-10-hydroxy-4,5-dihydro-9H-oxazolo[4,5-d]pyrido[1,2-b]pyridazin-9-one] was run?
**A.** 970 nM

**Q.** `O=c1ccn2c(c1O)-c1ocnc1CN2C(c1ccccc1)c1ccccc1` [Example 84, 5-benzhydryl-10-hydroxy-4,5-dihydro-9H-oxazolo[5,4-d]pyrido[1,2-b]pyridazin-9-one] was tested. Which EC50 [2] did it give?
**A.** 11000 nM

**Q.** Which EC50 [2] does the source give for `CC(=O)Oc1c2n(ncc1=O)[C@@H](C(c1ccc(F)cc1)c1ccc(F)cc1)Cn1ccnc1-2` [Example 85, (S)-6-(bis(4-fluorophenyl)methyl)-10-oxo-5,6-dihydro-10H-imidazo[2′,1′:3,4]pyrazino[1,2-b]pyridazin-11-yl acetate] here?
**A.** 22 nM

**Q.** How did the EC50 [2] turn out when `CC(C)C(=O)Oc1c2n(ncc1=O)[C@@H](C(c1ccc(F)cc1)c1ccc(F)cc1)Cn1ccnc1-2` [Example 86, (S)-6-(bis(4-fluorophenyl)methyl)-10-oxo-5,6-dihydro-10H-imidazo[2′,1′:3,4]pyrazino[1,2-b]pyridazin-11-yl isobutyrate] was run?
**A.** 21 nM

**Q.** `CC(C)CC(=O)Oc1c2n(ncc1=O)[C@@H](C(c1ccc(F)cc1)c1ccc(F)cc1)Cn1ccnc1-2` [Example 87, (S)-6-(bis(4-fluorophenyl)methyl)-10-oxo-5,6-dihydro-10H-imidazo[2′,1′:3,4]pyrazino[1,2-b]pyridazin-11-yl 3-methylbutanoate] was tested. Which EC50 [2] did it give?
**A.** 21 nM

**Q.** For `COC(=O)OCOc1c2n(ncc1=O)[C@@H](C(c1ccc(F)cc1)c1ccc(F)cc1)Cn1ccnc1-2` [Example 88, (S)-((6-(bis(4-fluorophenyl)methyl)-10-oxo-5,6-dihydro-10H-imidazo[2′,1′:3,4]pyrazino[1,2-b]pyridazin-11-yl)oxy)methyl methyl carbonate], which EC50 [2] is on record?
**A.** 42 nM
